Assay results from patent US4666907A, “Phenothiazine and derivatives and analogs and use as leukotriene biosynthesis inhibitors” (Merck Frosst Canada, Inc., priority 1986, dated 1987).
Values after ≈ are worked out from the molar mass of the structure shown. Like-named read-outs stand apart in the source and are kept apart here.

Key:
[1] = system: PAF-induced hyperalgesia in Sprague-Dawley rats; test: PAF-induced hyperalgesia assay (vocalization threshold, rat paw); type: in vivo; conditions: po, read-out: PAF Induced Hyperalgesia Assay % inhibition
Protocol: Female Sprague-Dawley rats, 35-40 g were fasted overnight. Platelet activating factor, PAF, (L-lecithin B-acetyl O-alkyl) 1 μg/0.1 ml was given by subplantar injection in the rat paw. The compounds to be evaluated were homogenized in aqueous Vehicle (0.9% benzyl alcohol, 0.5% Tween 80 and 0.4% methylcellulose) and administered orally in a volume of 0.1 ml, 30 minutes prior to PAF.
Animals were tested 1, 2, 3 and 4 hours after PAF administration. The vocalization threshold, defined as the pressure (mm Hg) needed to evoke a squeak response, was recorded for both the injected and contralateral paw. No animal was subjected to pressure greater than 60 mm Hg. Hyperalgesia is defined as a decrease in vocalization threshold as compared to a normal paw. Percent inhibition of hyperalgesia was calculated as the proportion of animals with vocalization thresholds greater than 200% of controls.

asthmatic rats = test: Asthmatic rat assay (duration of dyspnoea after egg albumin aerosol); type: in vivo; conditions: po; for inhibition in vivo at 3 mg/kg: 3 mg/kg p.o.; for inhibition in vivo at 1.5 mg/kg: 1.5 mg/kg p.o.
Description: Rats were obtained from an inbred line of asthmatic rats. Both female and male rats from 200 to 300 g were used.
Egg albumin (EA), grade V, crystallized and lyophilized, was obtained from Sigma Chemical Co., St. Louis. Bordetella pertussis vaccine, containing 30×10^9 killed bacteria per ml was obtained from the Institut Armand-Frappier, Laval des Rapides, Quebec. Aluminum hydroxide was obtained from the Regeis Chemical Company, Chicago.
The challenge and subsequent respiratory recordings were carried out in a clear plastic box with internal dimensions 10×6×4 inches. The top of the box was removable; in use, it was held firmly in place by four clamps and an airtight seal was maintained by a soft rubber gasket. […] A Fleisch No. 0000 pneumotachograph was inserted into one end of the box and coupled to a Grass volumetric pressure transducer (PT5-A) which was then connected to a Beckman Type R Dynograph through appropriate couplers. While aerosilizing the antigen, the outlets were open and the pneumotachograph was isolated from the chamber. The outlets were closed and the pneumotachograph and the chamber were connected during the recording or the respiratory patterns. For challenge, 2 ml of a 3% solution of antigen in saline was placed into each nebulizer and the aerosol was generated with air from a small Potter diaphragm pump operating at 10 psi and a flow of 8 liters/minutes.
Rats were sensitized by injection (s.c.) 1 ml of a suspension containing 1 mg EA and 200 mg aluminum hydroxide in saline. Simultaneously, they received an injection (i.p.) of 0.5 ml of B. pertussis vaccine. They were used between days 14 and 18 postsensitization. In order to eliminate the serotonin component of the response, rats were pretreated intravenously 5 minutes prior to aerosol challenge with […] methylserzide. Rats were then exposed to an aerosol of 3% EA in saline for exactly 1 minute, then their respiratory profiles were recorded for a further 25-30 minutes. The duration of continuous dyspnoea was measured from the respiratory recordings.
Compounds were generally administered either intraperitoneally 1 hour prior to challenge or orally 11/2 hours prior to challenge. They were either dissolved in dimethylsulfoxide or suspended in 0.1% methocel and 0.5% Tween 80. The volume injected has 2 ml kg^-1 (intraperitoneally) or 10 ml kg^-1 (orally). Prior to oral treatment rats were starved overnight. Their activity was determined in terms of their ability to decrease the duration of symptoms of dyspnoea in comparison with a group of vehicle-treated controls. Usually, a compound was evaluated at a series of doses and an ED50 was determined. This was defined as the dose (mg/kg) which would inhibit the duration of symptoms by 50%.

[2] = system: sensitized guinea pig trachea; test: Antigen challenge 'in vitro' assay (egg albumin-induced contraction of sensitized tracheal chains); type: cell-based; conditions: Cavia porcellus; for inhibition at 10 µg/mL / inhibition at 1 µg/mL: read-out: In Vitro Antigen Challenge % Inhibition; for inhibition at 3 µg/mL: at 3 μg/ml
Protocol: Male guinea pigs weighing 300-350 g were sensitized by injecting (i.p.) 0.5 ml of a suspension containing 0.4 mg of egg albumin (Ovalbumin, Grade V, Sigma Chemical Co.) and 4.0 g aluminum hydroxide in 19.6 ml of saline. Two weeks were permitted for sensitization to occur.
Three sensitized guinea pigs were stunned and exsanguinated. The tracheas were removed, freed of adhering tissue and divided longitudinally by cutting through the cartilaginous tissue directly opposite the muscle insertion. Each opened trachea was then transected between every second cartilage. Four of the cut sections were tied together, end to end in a series with No. 0.7 silk thread ensuring that the tracheal muscles were all in the same vertical plane. Thus, each chain consisted of tissue from three different animals.
The chain so formed was then suspended under 1 g of tension (by silk ties at each end) in a 20 ml organ bath containing 10 ml of modified^1 Krebs-Henseleit buffer solution gassed with 95% O2 and 5% CO2 at 37° C. Mepyramine (0.55 μg/ml) and indomethacin (2.67 μg/ml were added to the buffer to avoid the contribution of histamine receptors and cyclooxygenase products to the contraction. To record responses one end of the tracheal chain was attached to a Gould Statham UC-2 force displacement transducer which was connected to a Beckman Type R-dynograph.The preparations were allowed to equilibrate for one hour during which time the tissues were automatically washed (10 ml volume displacement) ever 6 minutes.
After the equilibration period the tissues were primed with methacholine (3 μg/lml; 1.5×10^-5 M), washed and allowed to recover to baseline. The tissues were treated again with a second dose of methacholine, washed, allowed to return to baseline and washed for an additional hour.
Two chains were used as a control. These were incubated in a concentration of egg albumin sufficient to induce an average contraction of 50-80% of the methacholine response.
Each compound to be tested was added to two other baths (at a final concentration in each bath of 10 μg/ml or lower) 15 minutes prior to challenging the fresh chains with egg albumin.
The response of the challenged tissue was expressed as a percentage of the methacholine maximum. The % inhibition for each compound was then calculated. Compounds which at 10 μg/ml (final concentration) inhibited the egg albumin response by 50% or more were retested at a lower concentration.

[3] = system: Mouse peritoneal macrophages; test: Mouse macrophage assay (zymosan-stimulated arachidonic acid metabolites, Leukotriene C4); type: cell-based; conditions: read-out: Macrophage IC50
Protocol: Mouse peritoneal macrophages were treated sequentially with arachidonic acid (labelled with tritium); the compound being evaluated as an inhibitor, and a stimulator (zymosan). Metabolites derived from arachidonic acid (PGE2, 6-Keto PG-F1@ and Leukotriene C4) were separated from the incubation medium by extraction and chromatography, and then quantitated by determining the amount of radioactivity (cpm) associated with each of them. […] (This protocol is identical to that described in the reference except that the radioactivity herein associated with the LTC4 was determined by counting an aliquot of the final aqueous solution directly rather than chromatographing it first).
Reference: Humes, J. L. et al., J. Biol. Chem. 257, 1591-4 (1982).

[4] = system: LTB4 formation in rat PMN; test: Rat polymorphonuclear leukocyte (P.M.N.) assay, LTB4 formation; type: cell-based; conditions: A-23187, LTB4
Protocol: Rats under ether anesthesia are injected (i.p.) with 8 ml of a suspension of sodium caseinate (6 grams in ca. 50 ml water). After 15-24 hours the rats are sacrificed (CO2) and the cells from the peritoneal cavity are recovered by lavage with 20 ml of buffer (Eages MEM containing 30 mM HEPES adjusted to pH 7.4 with NaOH). The cells are pelleted (350×g, 5 min.), resuspended in buffer with vigorous shaking, filtered through lens paper, recentrifuged and finally suspended in buffer at a concentration of […]. A 500 μl aliquot of PMN suspension and test compound are preincubated for 2 minutes at 37° C., followed by the addition of 10 μM A-23187. The suspension is stirred for an additional 4 minutes then bioassayed for LTB4 content by adding an aliquot to a second 500 μl portion of the PMN at 37° C. The LTB4 produced in the first incubation causes aggregation of the second PMN, which is measured as a change in light transmission. The size of the assay aliquot is chosen to give a submaximal transmission change (usually […]) for the untreated control. The percentage inhibition of LTB4 formation is calculated from the ratio of transmission change in the sample to the transmission change in the compound-free control.

[5] = mouse peritoneal macrophages, zymosan

Compound	IC50 [3, 5] [µg/mL]	IC50 [4] [µg/mL]	inhibition at 10 µg/mL ([2]; at 10 μg/ml) [%]	other results
O=S1(=O)c2ccccc2Nc2ccc(O)cc21	–	–	–	responders at 3 mg/kg ([1]; 3 mg/kg p.o.): 60%; inhibition in vivo at 3 mg/kg (asthmatic rats): 70%
O=S1(=O)c2ccccc2Nc2ccc(O)c(Cl)c21	–	–	–	responders at 1.2 mg/kg ([1]; 1.2 mg/kg p.o.): 50%; inhibition in vivo at 1.5 mg/kg (asthmatic rats): 59%
COc1ccc2c(c1Cl)Sc1cc(F)ccc1N2C	–	–	–	inhibition in vivo at 3 mg/kg (asthmatic rats): 42%
COc1ccc2c(c1Cl)[S+]([O-])c1ccccc1N2 (stereo not shown)	–	–	–	inhibition in vivo at 3 mg/kg (asthmatic rats): 56%
O=S1(=O)c2ccccc2Nc2ccc(O)c(O)c21	–	–	–	inhibition in vivo at 1.5 mg/kg (asthmatic rats): 65%
CC(=O)N1c2ccccc2Sc2c1ccc(O)c2Cl	–	–	–	inhibition in vivo at 3 mg/kg (asthmatic rats): 61%
CC(=O)Oc1ccc2c(c1Cl)Sc1ccccc1N2C(C)=O	–	–	–	inhibition in vivo at 3 mg/kg (asthmatic rats): 58%
COc1ccc2c(c1Cl)Sc1cc(F)ccc1N2C(C)=O	–	–	–	inhibition in vivo at 3 mg/kg (asthmatic rats): 36%
COc1ccc2c(c1Cl)[S+]([O-])c1cc(F)ccc1N2C (stereo not shown)	–	–	–	inhibition in vivo at 3 mg/kg (asthmatic rats): 52%
COc1ccc2c(c1Cl)Oc1ccccc1N2C	–	–	–	inhibition in vivo at 0.3 mg/kg (asthmatic rats; 0.3 mg/kg p.o.): 49%
COc1ccc2c(c1)Sc1c(cc(OC)c(OC(C)=O)c1Br)N2C(C)=O	–	–	–	responders at 0.03 mg/kg ([1]; 0.03 mg/kg p.o.): 60%; inhibition in vivo at 0.5 mg/kg (asthmatic rats; 0.5 mg/kg p.o.): 58%
COc1ccc2c(c1)Sc1c(cc(OC)c(O)c1Br)N2C(C)=O	–	–	–	responders at 0.1 mg/kg ([1]; 0.1 mg/kg p.o.): 60%; inhibition in vivo at 1.5 mg/kg (asthmatic rats): 78%
Clc1cccc2c1Sc1ccccc1N2 [Compound 3]	0.01 to 0.1	0.05 to 0.5 (≈ 0.214 to 2.14 µM)	37	–
Cc1cccc2c1Nc1ccccc1S2 [Compound 4]	5	–	76	–
FC(F)(F)c1ccc2c(c1)Nc1ccccc1S2 [Compound 5]	0.1	–	7	–
Oc1ccc2c(c1)Sc1ccccc1N2 [Compound 6]	0.1 to 1	0.016 (≈ 0.0743 µM)	100	–
CC(=O)Oc1ccc2c(c1)Sc1ccccc1N2 [Compound 7]	0.01 to 0.1	0.005 (≈ 0.0194 µM)	60	–
CC(=O)c1ccc2c(c1)Nc1ccccc1S2 [Compound 8]	0.2	–	60	–
Oc1ccc2c(c1Cl)Sc1ccccc1N2 [Compound 9]	–	0.005 (≈ 0.02 µM)	–	inhibition at 3 µg/mL [2]: 97%
Cc1ccc(S(=O)(=O)Oc2ccc3c(c2Cl)Sc2ccccc2N3)cc1 [Compound 10]	–	0.1 to 1 (≈ 0.248 to 2.48 µM)	–	inhibition at 3 µg/mL [2]: 14%
O=[N+]([O-])c1ccc2c(c1)Sc1cc([N+](=O)[O-])ccc1N2 [Compound 15]	0.0016 to 0.008	–	21	–
c1ccc2c(c1)Nc1ccccc1O2 [Compound 24]	–	5 (≈ 27.3 µM)	–	inhibition at 1 µg/mL [2]: 88%; IC50 ([3]; Mus musculus): 0.1 µg/mL
c1ccc2c(c1)Nc1ccccc1S2 [drawing 34]	–	0.4 (≈ 2.01 µM)	–	inhibition at 10 µg/mL [2]: 100%; IC50 ([3]; Mus musculus): 0.06 µg/mL
c1ccc2c(c1)Nc1ccccc1O2 [drawing 75]	–	–	–	inhibition in vivo at 1.5 mg/kg (asthmatic rats): 51%

Now from value to compound, other results behind:

IC50 [3, 5] [µg/mL]	IC50 [4] [µg/mL]	Compound	inhibition at 10 µg/mL ([2]; at 10 μg/ml) [%]	other results
0.1	–	CC(=O)Oc1ccc2c(c1Cl)Sc1ccccc1N2 [Compound 11]	100	–
–	0.01 to 0.1 (≈ 0.0379 to 0.379 µM)	COc1ccc2c(c1Cl)Sc1ccccc1N2 [Compound 12]	–	inhibition at 1 µg/mL ([2]; at 1 μg/ml): 60%
0.12	–	COc1ccc2c(c1)Sc1cc(Cl)ccc1N2 [Compound 13]	22	–
0.01 to 0.1	0.005 to 0.05 (≈ 0.0186 to 0.186 µM)	Clc1ccc2c(c1)Sc1cc(Cl)ccc1N2 [Compound 14]	1	–
–	0.01 (≈ 0.0282 µM)	COc1ccc2c(c1)Sc1c(cc(OC)c(O)c1Br)N2 [Compound 16]	–	–
5	–	CN(C)c1ccc2c(c1)Sc1cc(N(C)C)ccc1N2 [Compound 17]	–	–
–	0.05 to 0.5 (≈ 0.232 to 2.32 µM)	Oc1cccc2c1Nc1ccccc1S2 [Compound 18]	3	–
–	0.005 (≈ 0.0182 µM)	CC(=O)Oc1ccc2c(c1)Sc1cc(F)ccc1N2 [Compound 19]	–	–
–	0.005 to 0.05 (≈ 0.0156 to 0.156 µM)	CC(C)C(=O)Oc1ccc2c(c1Cl)Sc1ccccc1N2 [Compound 20]	65	–
5	–	CC(=O)N1c2ccccc2Sc2ccccc21 [Compound 21]	–	–
1	1 (≈ 3.27 µM)	COc1ccc2c(c1Cl)Sc1ccccc1N2C(C)=O [Compound 22]	91	–
–	0.05 to 0.5 (≈ 0.199 to 1.99 µM)	FC(F)(F)c1ccc2c(c1)Nc1ccccc1O2 [Compound 23]	–	inhibition at 3 µg/mL [2]: 40%
–	0.5 (≈ 1.64 µM)	CC(=O)Oc1ccc2c(c1)Sc1cccc(Cl)c1N2C [Compound 25]	–	inhibition at 3 µg/mL [2]: 1 to 9%
1	5 (≈ 18 µM)	COc1ccc2c(c1Cl)Sc1ccccc1N2C [Compound 26]	3	–
–	0.005 to 0.05 (≈ 0.015 to 0.15 µM)	CC(C)C(=O)Oc1ccc2c(c1Cl)Sc1ccccc1N2C [Compound 27]	–	inhibition at 3 µg/mL [2]: 6%
